The source made the active and inactive calls. No cut-off for these calls is given here.
How the values were obtained:
LLC-PK1 [1] = experiment: Cytotoxicity against pig LLC-PK1 cells at 1 to 20 ug/mL after 24 hrs by WST-8 assay; assay type: cell-based, Sus scrofa; conditions: llc-pk1, 24 h
LLC-PK1 [2] = experiment: Cytotoxicity against pig LLC-PK1 cells at 1 to 20 ug/mL after 24 hrs by LDH leakage assay; assay type: cell-based, Sus scrofa; conditions: llc-pk1, 24 h
LLC-PK1 [3] = experiment: Cytotoxicity against pig LLC-PK1 cells at 20 ug/mL by WST-8 assay; assay type: cell-based, Sus scrofa; conditions: TDE = time-dependent effect
LLC-PK1 [4] = experiment: Cytotoxicity against pig LLC-PK1 cells at 20 ug/mL by LDH leakage assay; assay type: cell-based, Sus scrofa; conditions: TDE = time-dependent effect
LLC-PK1 [5] = experiment: Cytotoxicity against pig LLC-PK1 cells at 15 ug/ml after 24 hrs by propidium iodide staining; assay type: cell-based, Sus scrofa; conditions: llc-pk1, 24 h
LLC-PK1 [6] = experiment: Induction of apoptosis in pig LLC-PK1 cells at 15 ug/ml after 24 hrs by TUNEL assay; assay type: cell-based, Sus scrofa; conditions: llc-pk1, 24 h
LLC-PK1 [7] = experiment: Decrease in intracellular ATP level in pig LLC-PK1 cells after 24 hrs by HPLC/MS analysis; assay type: ADME, cell-based, Sus scrofa; conditions: llc-pk1, 24 h
LLC-PK1 [8] = experiment: Decrease in intracellular ATP level in pig LLC-PK1 cells at 10 ug/ml after 24 hrs by HPLC/MS analysis; assay type: ADME, cell-based, Sus scrofa; conditions: llc-pk1, 24 h, TDE = time-dependent effect
LLC-PK1 [9] = experiment: Cytotoxicity against pig LLC-PK1 cells at 15 ug/ml after 6 hrs pretreated for 1 hr with membrane cholesterol depletion agent methyl-beta-cyclodextrin in presence of 4% v/v cholesterol repletion condition; assay type: cell-based, Sus scrofa; conditions: llc-pk1, 6 h
LLC-PK1 [10] = experiment: Cytotoxicity against pig LLC-PK1 cells at 15 ug/ml after 6 hrs pretreated for 1 hr with membrane cholesterol depletion agent methyl-beta-cyclodextrin; assay type: cell-based, Sus scrofa; conditions: llc-pk1, 6 h
LLC-PK1 [11] = experiment: Cytotoxicity against pig LLC-PK1 cells at 15 ug/ml after 6 hrs by WST-8 assay in presence low extracellular Na+ level (70 mM Na+); assay type: cell-based, Sus scrofa; conditions: llc-pk1, 6 h
LLC-PK1 [12] = experiment: Cytotoxicity against pig LLC-PK1 cells at 15 ug/ml after 6 hrs by WST-8 assay in presence of 1 mM […] Ca2+ chelating agent EGTA; assay type: cell-based, Sus scrofa; conditions: llc-pk1, 6 h
LLC-PK1 [13] = experiment: Cytotoxicity against pig LLC-PK1 cells at 15 ug/ml after 6 hrs pretreated with 30 uM of ryanodine receptor antagonist Dant for 20 mins by WST-8 assay; assay type: cell-based, Sus scrofa; conditions: llc-pk1, 6 h
LLC-PK1 [14] = experiment: Cytotoxicity against pig LLC-PK1 cells at 15 ug/ml after 6 hrs pretreated with 1 uM of IP3 antagonist Xesto for 20 mins by WST-8 assay; assay type: cell-based, Sus scrofa; conditions: llc-pk1, 6 h
LLC-PK1 [15] = experiment: Cytotoxicity against pig LLC-PK1 cells at 15 ug/ml after 6 hrs pretreated with 10 uM of mitochondrial Ca2+ uniport inhibitor RR for 20 mins by WST-8 assay; assay type: cell-based, Sus scrofa; conditions: llc-pk1, 6 h
LLC-PK1 [16] = experiment: Cytotoxicity against pig LLC-PK1 cells at 15 ug/ml after 6 hrs pretreated with 10 uM of mitochondrial Na+ -Ca2+ exchange inhibitor CGP for 20 mins by WST-8 assay; assay type: cell-based, Sus scrofa; conditions: llc-pk1, 6 h
LLC-PK1 [17] = experiment: Cytotoxicity against pig LLC-PK1 cells at 15 ug/ml after 6 hrs pretreated with 10 uM of JNK inhibitor 2 for 1 hr by WST-8 assay; assay type: cell-based, Sus scrofa; conditions: llc-pk1, 6 h
LLC-PK1 [18] = experiment: Cytotoxicity against pig LLC-PK1 cells at 15 ug/ml after 6 hrs pretreated with 10 uM of p38 MAPK inhibitor PD169316 for 1 hr by WST-8 assay; assay type: cell-based, Sus scrofa; conditions: llc-pk1, 6 h
LLC-PK1 [19] = experiment: Cytotoxicity against pig LLC-PK1 cells at 15 ug/ml after 6 hrs pretreated with 10 uM of ERK inhibitor PD98059 for 1 hr by WST-8 assay; assay type: cell-based, Sus scrofa; conditions: llc-pk1, 6 h
LLC-PK1 [20] = experiment: Induction of p38 phosphorylation in pig LLC-PK1 cells at 15 ug/ml by Western blot analysis; assay type: cell-based; conditions: Sus scrofa
LLC-PK1 [21] = experiment: Induction of JNK phosphorylation in pig LLC-PK1 cells at 15 ug/ml by Western blot analysis; assay type: cell-based; conditions: Sus scrofa
LLC-PK1 [22] = experiment: Induction of ERK phosphorylation in pig LLC-PK1 cells at 15 ug/ml by Western blot analysis; assay type: cell-based; conditions: Sus scrofa
LLC-PK1 [23] = experiment: Induction of p38 phosphorylation in pig LLC-PK1 cells at 15 ug/ml by Western blot analysis in presence of 2 uM […]; assay type: cell-based; conditions: Sus scrofa
LLC-PK1 [24] = experiment: Induction of JNK phosphorylation in pig LLC-PK1 cells at 15 ug/ml by Western blot analysis in presence of 2 uM […]; assay type: cell-based; conditions: Sus scrofa
LLC-PK1 [25] = experiment: Induction of ERK phosphorylation in pig LLC-PK1 cells at 15 ug/ml by Western blot analysis in presence of 2 uM […]; assay type: cell-based; conditions: Sus scrofa
LLC-PK1 [26] = experiment: Induction of mitochondrial membrane depolarization in pig LLC-PK1 cells at 15 ug/ml after 3 hrs by JC-1 staining based fluorescent microscopy; assay type: cell-based, Sus scrofa; conditions: llc-pk1, 3 h
LLC-PK1 [27] = experiment: Induction of mitochondrial membrane depolarization in pig LLC-PK1 cells at 15 ug/ml after 3 hrs pretreated with 10 uM of mitochondrial Na+ -Ca2+ exchange inhibitor CGP for 1 hr by JC-1 staining based fluorescent microscopy; assay type: cell-based, Sus scrofa; conditions: llc-pk1, 3 h
LLC-PK1 [28] = experiment: Induction of mitochondrial membrane depolarization in pig LLC-PK1 cells at 15 ug/ml after 3 hrs pretreated with 10 uM of mitochondrial Ca2+ uniport inhibitor RR for 1 hr by JC-1 staining based fluorescent microscopy; assay type: cell-based, Sus scrofa; conditions: llc-pk1, 3 h
LLC-PK1 [29] = experiment: Induction of mitochondrial membrane depolarization in pig LLC-PK1 cells at 15 ug/ml after 3 hrs pretreated with 10 uM of JNK inhibitor 2 for 1 hr by JC-1 staining based fluorescent microscopy; assay type: cell-based, Sus scrofa; conditions: llc-pk1, 3 h
LLC-PK1 [30] = experiment: Induction of mitochondrial membrane depolarization in pig LLC-PK1 cells at 15 ug/ml after 3 hrs pretreated with 10 uM of ERK inhibitor PD98059 for 1 hr by JC-1 staining based fluorescent microscopy; assay type: cell-based, Sus scrofa; conditions: llc-pk1, 3 h
LLC-PK1 [31] = experiment: Cytotoxicity against pig LLC-PK1 cells at 15 ug/ml after 6 hrs by WST-8 assay in presence of 2 uM […]; assay type: cell-based, Sus scrofa; conditions: llc-pk1, 6 h

With `C[C@@H]1[C@H](O)[C@@H](C)/C=C/C=C/C=C/C=C/C=C/C=C/C=C/[C@H](O[C@@H]2O[C@H](C)[C@@H](O)[C@H](N)[C@@H]2O)C[C@@H]2O[C@](O)(C[C@@H](O)C[C@@H](O)[C@H](O)CC[C@@H](O)C[C@@H](O)CC(=O)O[C@H]1C)C[C@H](O)[C@H]2C(=O)O` [AMPHOTERICIN B] the Activity (LLC-PK1 [1]) was “Dose-dependent effect”, the Activity (LLC-PK1 [2]) was “Dose-dependent effect” and the Activity (LLC-PK1 [3]) was “tde”. The Activity (LLC-PK1 [4]) was “tde”, the Activity (LLC-PK1 [5]) was “Toxic” and the Activity (LLC-PK1 [6]) was “Non-toxic”. The Activity (LLC-PK1 [7]) was “Dose-dependent effect”, the Activity (LLC-PK1 [8]) was “tde” and the Activity (LLC-PK1 [9]) was “Toxic”. For the same compound, the Activity (LLC-PK1 [10]) was “Non-toxic”, the Activity (LLC-PK1 [11]) was “Non-toxic” and the Activity (LLC-PK1 [12]) was “Non-toxic”. The Activity (LLC-PK1 [13]) was “Non-toxic”, the Activity (LLC-PK1 [14]) was “Toxic” and the Activity (LLC-PK1 [15]) was “Non-toxic”. For the same compound, the Activity (LLC-PK1 [16]) was “Non-toxic”, the Activity (LLC-PK1 [17]) was “Non-toxic” and the Activity (LLC-PK1 [18]) was “Non-toxic”. The Activity (LLC-PK1 [19]) was “Non-toxic”, the Activity (LLC-PK1 [20]) was “Active” and the Activity (LLC-PK1 [21]) was “Active”. The Activity (LLC-PK1 [22]) was “Active”, the Activity (LLC-PK1 [23]) was “Active” and the Activity (LLC-PK1 [24]) was “Active”. For the same compound, the Activity (LLC-PK1 [25]) was “Active”, the Activity (LLC-PK1 [26]) was “Toxic” and the Activity (LLC-PK1 [27]) was “Toxic”. For the same compound, the Activity (LLC-PK1 [28]) was “Toxic”, the Activity (LLC-PK1 [29]) was “Toxic” and the Activity (LLC-PK1 [30]) was “Toxic”. The Activity (LLC-PK1 [31]) was “Toxic”.

Reference: ChEMBL document CHEMBL1687726, “Amphotericin B-induced renal tubular cell injury is mediated by Na+ Influx through ion-permeable pores and subsequent activation of mitogen-activated protein kinases and elevation of intracellular Ca2+ concentration” (Antimicrob Agents Chemother, 2009)
